Key:
[1] = Peptide cyclization kinetics with model peptide CGK-5; conditions: 500 μM CGK-5, 550 μM linker, RT; for cyclization of CGK-5 (in words): ABC buffer pH 7.4, 1 mM TCEP, 2 h, LC-MS; for half-life of the cyclization reaction with CGK-5: ammonium bicarbonate (ABC) buffer, TCEP, HPLC, one-phase association, mean ± 95% CI, at least three independent experiments
Source text: While pCAmCP and mCAmCP gave efficient cyclization of the peptide fusion of sfGFP, we looked to further investigate the specificity of the reaction using peptide kinetic assays. To do this, we first established reactivity of the compounds with a model peptide (CGK-5, Figures 3A and S16) that was composed of two cysteines flanking a region tuned for solubility in buffer (GGKGG) and with a tryptophan residue on the C-terminus for UV absorbance. […] To test the specificity of the reaction for the N-terminal cysteine, we synthesized a peptide analogue (CGK-5Abu, Figures 3D–F and S17) that contained 2-aminobutyric acid in place of the N-terminal cysteine. […] Since these reactions occurred at 500 μM of peptide to allow for analysis on the HPLC, we envision this difference will likely be exaggerated when using lower peptide/protein concentrations. Although it is unlikely at neutral pH, the chloroacetamide moiety can possibly react with nucleophilic amino acids other than cysteine. To defuse this concern, we designed a peptide containing a variety of possibly nucleophilic residues (serine, arginine, tyrosine, histidine, and lysine, but not an internal cysteine) adjacent to the N-terminal cysteine (BCP, Figure S18) and let the peptide react with pCAmCP or mCAmCP. […] On the other hand, peptides that contained an internal cysteine were nearly completely reacted with the chloroacetamide after less than 2 h at the same concentrations (Figure 3B,C). This indicates high specificity for the chloroacetamide reacting with an internal cysteine in comparison to other nucleophilic residues at pH 7.4. […] It could be that the side reaction with TCEP may help mask the chloroacetamide after long incubation periods to prevent it from reacting with less reactive nucleophiles.
The peptide (CGK-5 or CGK-5Abu, 5 mM stock in water) was diluted to 500 μM in ammonium bicarbonate buffer (50 mM, pH 7.5) containing 1.2 mM TCEP. Following dilution of the peptide, the organic linker (10 mM in DMSO) was added to a final concentration of 550 μM. The reaction mixture was incubated while being shaken at RT. At each time point (5, 10, 15, 30, 45, 60, 120, and 240 min), 5 μL of reaction mixture was removed, and the reaction was quenched by the addition of 5 μL of 100 mM cysteine. Following dilution with 20 μL of water, the sample was then analyzed on a Shimadzu HPLC with an LCMS-2020 mass spectrometer attached (10–40% ACN gradient in H2O over 6 min, 0.1% formic acid, 1 mL/min flow rate, Shimadzu C18 250 × 4.6 mm, 5 μm). Peaks corresponding to the cyclized and unreacted forms were then integrated on the Shimadzu LabSolutions software, plotted in GraphPad Prism, and fitted using a one-phase association fitting parameter to determine reaction half-lives.

[2] = tested on: CA5C phages (N-terminal cysteines displayed on pIII); test: Biotin pulldown (capture) assay of CA5C phages; conditions: 100 μM linker, RT; Biotin-CBT, streptavidin beads; vs control phage AAKAA; n = 3
Source text: Following the characterization of the linkers for efficient cyclization of peptides, we then looked to characterize pCAmCP and mCAmCP for reactivity toward phage proteins. Some previously developed linkers that generate macrocyclic peptide libraries on phage hinder phage infectivity, which is likely from modifying cysteines within phage coat proteins.[26]−[28] To test if this occurred in the novel linkers, we performed toxicity assays that reacted the phages with different concentrations of linker (50–200 μM), temperatures (22 or 37 °C), and reaction times (3 or 24 h). […] We expressed phages with a CA5C peptide on the N-terminus of pIII. […] Following the precipitation of the phages, they were again reduced with TCEP and were incubated with a Biotin-CBT compound to label any unreacted N-terminal cysteines with biotin, allowing for phage capture on streptavidin beads (Figure 4B). […] Comparison with capture levels of unreacted phages indicated at least 80% and 70% reactivity of pCAmCP and mCAmCP with the CA5C phages, respectively. […]
The purified CA5C phages (10^11 to 10^12 cfu, 98 μL) in binding buffer were incubated with 1 mM TCEP at 37 °C for 30 min. […] Percent phages captured was calculated by (phages input – phages in supernatant)/phages input × 100.

With `N#Cc1nccc(NC(=O)CCl)n1` [mCAmCP, 2-chloro-N-(2-cyanopyrimidin-4-yl)acetamide] the “cyclization of CGK-5 (in words)” value [1] was “nearly complete cyclization of the peptide after 2 h”, the “half-life of the cyclization reaction with CGK-5” value [1] was 13 ± 3 min and the “percent of phages captured after linker reaction (in words)” value [2] was “reduced to levels similar to those of a control phage that lacked N-terminal cysteines”.

In the case of `N#Cc1ncc(NC(=O)CCl)cn1` [pCAmCP, 2-chloro-N-(2-cyanopyrimidin-5-yl)acetamide], the “cyclization of CGK-5 (in words)” value [1] is reported as “nearly complete cyclization of the peptide after 2 h”, the “half-life of the cyclization reaction with CGK-5” value [1] is reported as 23 ± 5 min and the “percent of phages captured after linker reaction (in words)” value [2] is reported as “reduced to levels similar to those of a control phage that lacked N-terminal cysteines”.
